{"source": "paper PMC7766697", "about": "“Toxicological Screening of Four Bioactive Citroflavonoids: In Vitro, In Vivo, and In Silico Approaches” (Molecules, 2020)", "key": {"Wistar rats [1]": {"tested_on": "Wistar rats", "conditions": "rat, in vivo, po"}, "MDCK cells": {"tested_on": "MDCK cells", "assay": "MTT-based cytotoxicity assay in MDCK cells", "assay_type": "cell-based, Canine", "conditions": "48 h, 125 to 750 µg/mL (QRT effect at 250 and 500 µg/mL)", "description": "(§1) VERO and MDCK cell lines were acquired from American Type Culture Collection (ATCC, Manassas, VA, USA). […] In vitro cytotoxicity assay was performed on Madin-Darby Canine Kidney Epithelial Cells (MDCK) and green Monkey Kidney Cells (VERO) by MTT-based assay. Briefly, cells were seeded in 96-well plates at a density of 2.5 × 10^3 cells/well. […] The absorbance was measured after 45 min using a microplate reader (Multiskan Asent®) at a wavelength of 550 nm. The criteria for categorizing cytotoxicity against MDCK and VERO cells are based on the U.S. National Cancer Institute (NCI). The criteria comprise as follow: […] All results were expressed as mean ± standard error. The results from the in vivo and in vitro experiments were analyzed using software Origin® 8.0. […] The IC50 (half inhibitory concentration) values were calculated in Origin software®, (Northampton, MA, USA) and one-way ANOVA analysis was compared with cisplatin as the control."}, "Wistar rats [2]": {"tested_on": "Wistar rats", "assay": "Acute oral toxicity, OECD Test No. 423 (mortality, signs, LD50, body weight)", "assay_type": "in vivo", "conditions": "oral 300 and 2000 mg/kg, test days 2, 3, 9 and 10", "description": "Female Wistar rats (250 g b.w.) were used. These animals were obtained from Bioterium from División de Ciencias de la Salud at the Universidad de Quintana Roo. They were maintained under standard environmental conditions (22 ± 3 °C, 12 h/12 h light/dark cycle), and free access to standard rodent diet and water ad libitum. All animal procedures were conducted under our Federal Regulations for Animal Experimentation and Care and were approved by the Institutional Animal Care and Use Committee of the “Universidad Juárez Autónoma de Tabasco” university (Code:2017-001, Approved: October 2017). Rats were acclimatized for 1 week before the start of experimental procedures.\nThe half lethal dose (LD50) was estimated using the fixed-dose method described in OECD Guidelines for the Testing of Chemicals (Test No. 423: Acute Oral Toxicity-Class Method; OECD, 2001). […] This method allowed a step-by-step assay according to the chosen dose to begin the experiment. Subsequently, depending on the presence or absence of mortality, the decision to continue within the next step is taken, so fewer experimental animals should be used.\n(§2) Rats used for this experiment were fasted for 8 h and were organized into two groups of three rats for each dose and each flavonoid. Likewise, the control group received isotonic 0.9% sodium chloride solution (dose: 5 mL/kg). All rats were closely observed for toxic symptoms and behavioral changes (sedation, hyperactivity, writhing, pruritus, feeding and drinking habits, general morphological changes, and bite legs) for 30 min and periodically 24 h post-administration. Animals were observed daily (14 days) and mortality rate recorded. A LD50 was estimated according to criteria of OECD guide 423.\nThe rats’ body weight in each group was determined and recorded before the treatment initiation and after 14 days. Changes in the body weight at the end of the 14 days were calculated. Once observation time was completed and to detect any adverse effect, blood samples were collected by cardiac puncture after the previous fasting of 8 h. […] In addition, organ weight was determined."}, "Wistar rats [3]": {"tested_on": "Wistar rats", "assay_type": "in vivo", "conditions": "rat, in vivo, po", "description": "as §2\nThe rats’ body weight in each group was determined and recorded before the treatment initiation and after 14 days. Changes in the body weight at the end of the 14 days were calculated. Once observation time was completed and to detect any adverse effect, blood samples were collected by cardiac puncture after the previous fasting of 8 h. For this purpose, rats were anesthetized by intraperitoneally 50 mg/kg sodium pentobarbital. The liver was carefully extracted, rinsed in normal saline, drained on blotting paper, and carefully examined for tissue lesions. In addition, organ weight was determined.\nRat blood samples were analyzed by a hematology auto-analyzer system (Sysmex XS-1000i®, SYSMEX®, Oak Ridge, TN, USA). The parameters quantified on this stage were: blood count-packed cell volume (PCV), red blood cell (RBC) count, hemoglobin (Hb), platelet count, white blood cell (WBC) count, mean cell hemoglobin concentration (MCHC), mean red cell volume (MCV), mean cell hemoglobin (MCH), prothrombin time (PT), and activated partial thromboplastin time (aPTT)."}, "VERO cells": {"tested_on": "VERO cells", "assay": "MTT-based cytotoxicity assay in VERO cells", "assay_type": "cell-based, green Monkey", "conditions": "48 h, 125 to 750 µg/mL (QRT effect at 250–750 µg/mL)", "description": "as §1"}}, "note": "Where two headings read alike, the source gives them in different places."}
{"smiles": "O=C1C[C@@H](c2ccc(O)cc2)Oc2cc(O)cc(O)c21", "note": "[NARGE, naringenin]", "values": [{"measurement": "ALB (albumin)", "setting": "Wistar rats [1]; 300 mg/kg", "value": "3.86 ± 0.10", "unit": "g/dL"}, {"measurement": "ALB/GL Ratio", "setting": "Wistar rats [1]; 300 mg/kg", "value": "1.26 ± 0.08"}, {"measurement": "ALT", "setting": "Wistar rats [1]; 300 mg/kg", "value": "39.19 ± 0.77", "unit": "IU/L"}, {"measurement": "AST", "setting": "Wistar rats [1]; 300 mg/kg", "value": "156.06 ± 9.33", "unit": "IU/L"}, {"measurement": "DB (direct bilirubin)", "setting": "Wistar rats [1]; 300 mg/kg", "value": "0.013 ± 0.007", "unit": "mg/dL"}, {"measurement": "GL (globulin)", "setting": "Wistar rats [1]; 300 mg/kg", "value": "3.11 ± 0.25", "unit": "g/dL"}, {"measurement": "GLU (glucose)", "setting": "Wistar rats [1]; 300 mg/kg", "value": "145.29 ± 5.47", "unit": "mg/dL"}, {"measurement": "IB (indirect bilirubin)", "setting": "Wistar rats [1]; 300 mg/kg", "value": "0.051 ± 0.007", "unit": "mg/dL"}, {"measurement": "TB (total bilirubin)", "setting": "Wistar rats [1]; 300 mg/kg", "value": "0.064 ± 0.005", "unit": "mg/dL"}, {"measurement": "TP (total protein)", "setting": "Wistar rats [1]; 300 mg/kg", "value": "6.97 ± 0.30", "unit": "g/dL"}, {"measurement": "ALB (albumin)", "setting": "Wistar rats [1]; 2000 mg/kg", "value": "4.74 ± 0.16", "unit": "g/dL"}, {"measurement": "ALB/GL Ratio", "setting": "Wistar rats [1]; 2000 mg/kg", "value": "1.56 ± 0.14"}, {"measurement": "ALT", "setting": "Wistar rats [1]; 2000 mg/kg", "value": "57.68 ± 10.97", "unit": "IU/L"}, {"measurement": "AST", "setting": "Wistar rats [1]; 2000 mg/kg", "value": "149.37 ± 7.16", "unit": "IU/L"}, {"measurement": "DB (direct bilirubin)", "setting": "Wistar rats [1]; 2000 mg/kg", "value": "0.020 ± 0.001", "unit": "mg/dL"}, {"measurement": "GL (globulin)", "setting": "Wistar rats [1]; 2000 mg/kg", "value": "3.08 ± 0.17", "unit": "g/dL"}, {"measurement": "GLU (glucose)", "setting": "Wistar rats [1]; 2000 mg/kg", "value": "175.56 ± 6.80", "unit": "mg/dL"}, {"measurement": "IB (indirect bilirubin)", "setting": "Wistar rats [1]; 2000 mg/kg", "value": "0.045 ± 0.060", "unit": "mg/dL"}, {"measurement": "TB (total bilirubin)", "setting": "Wistar rats [1]; 2000 mg/kg", "value": "0.065 ± 0.007", "unit": "mg/dL"}, {"measurement": "TP (total protein)", "setting": "Wistar rats [1]; 2000 mg/kg", "value": "7.82 ± 0.07", "unit": "g/dL"}, {"measurement": "percentage viability / growth of cells", "setting": "MDCK cells", "value": "did not change the percentage of growth"}, {"measurement": "rats' weight vs control", "setting": "Wistar rats [2]", "value": "modifies rats’ weight"}, {"measurement": "Erythrocytes", "setting": "Wistar rats [3]; 300 mg/kg", "value": "6.98±1.18 106/µL"}, {"measurement": "Hb", "setting": "Wistar rats [3]; 300 mg/kg", "value": "12.00 ± 1.81", "unit": "g/dL"}, {"measurement": "Hto", "setting": "Wistar rats [3]; 300 mg/kg", "value": "36.76±5.31", "unit": "%"}, {"measurement": "Leukocytes", "setting": "Wistar rats [3]; 300 mg/kg", "value": "5.31±0.74 103/µL"}, {"measurement": "MCH", "setting": "Wistar rats [3]; 300 mg/kg", "value": "17.40 ± 0.39", "unit": "pg"}, {"measurement": "MCHC", "setting": "Wistar rats [3]; 300 mg/kg", "value": "32.53 ± 0.49", "unit": "g/dL"}, {"measurement": "MCV", "setting": "Wistar rats [3]; 300 mg/kg", "value": "53.46 ± 1.87", "unit": "fL"}, {"measurement": "Platelets", "setting": "Wistar rats [3]; 300 mg/kg", "value": "726.00±12.26 105/µL"}, {"measurement": "RBCDW", "setting": "Wistar rats [3]; 300 mg/kg", "value": "17.80±1.89", "unit": "%"}, {"measurement": "APTT", "setting": "Wistar rats [3]; 2000 mg/kg", "value": "26.26 ± 1.85", "unit": "s"}, {"measurement": "Erythrocytes", "setting": "Wistar rats [3]; 2000 mg/kg", "value": "8.03±0.29 106/µL"}, {"measurement": "Hb", "setting": "Wistar rats [3]; 2000 mg/kg", "value": "14.23 ± 0.22", "unit": "g/dL"}, {"measurement": "Hto", "setting": "Wistar rats [3]; 2000 mg/kg", "value": "44.63±0.44", "unit": "%"}, {"measurement": "Leukocytes", "setting": "Wistar rats [3]; 2000 mg/kg", "value": "5.57±1.20 103/µL"}, {"measurement": "MCH", "setting": "Wistar rats [3]; 2000 mg/kg", "value": "18.05 ± 0.39", "unit": "pg"}, {"measurement": "MCHC", "setting": "Wistar rats [3]; 2000 mg/kg", "value": "31.25 ± 0.18", "unit": "g/dL"}, {"measurement": "MCV", "setting": "Wistar rats [3]; 2000 mg/kg", "value": "57.85 ± 1.59", "unit": "fL"}, {"measurement": "PT", "setting": "Wistar rats [3]; 2000 mg/kg", "value": "15.46 ± 0.71", "unit": "s"}, {"measurement": "RBCDW", "setting": "Wistar rats [3]; 2000 mg/kg", "value": "18.93±0.14", "unit": "%"}, {"measurement": "percentage viability / growth of cells", "setting": "VERO cells", "value": "did not change the percentage of growth"}]}
